Assay results as given in patent US7767696B2, “Pyrazole derivatives” (Merck Patent GmbH, priority 2005, dated 2010).

Columns and labels:
VEGFR (KDR) = target: T1, VEGFR (KDR) (Homo sapiens, UniProt P35968); assay: VEGF receptor kinase assay (33P incorporation into pEY substrate); type: biochemical; conditions: read-out: Kinase-Inhibiting Activities IC50 VEGFR
T1 construct: cloning the cytoplasmic domain of the KDR kinase as an in frame fusion at the carboxyl terminus of the GST gene; made in house; host or cells: Spodoptera frugiperda (Sf21) insect cells, baculovirus vector pAcG2T
Protocol: VEGF receptor kinase activity is measured by incorporation of radiolabelled phosphate into 4:1 polyglutamic acid/tyrosine substrate (pEY). The phosphorylated pEY product is trapped on a filter membrane and the incorporation of radiolabelled phosphate is quantified by scintillation counting.
The intracellular tyrosine kinase domains of human KDR (Terman, B. I. et al. Oncogene (1991) Vol. 6, pp. 1677-1683.) and Flt-1 (Shibuya, M. et al. Oncogene (1990) Vol. 5, pp. 519-524) were cloned as glutathione S-transferase (GST) gene fusion proteins. This was accomplished by cloning the cytoplasmic domain of the KDR kinase as an in frame fusion at the carboxyl terminus of the GST gene. Soluble recombinant GST-kinase domain fusion proteins were expressed in Spodoptera frugiperda (Sf21) insect cells (Invitrogen) using a baculovirus expression vector (pAcG2T, Pharmingen).
Method B—VEGF Receptor Kinase Assay
1. Add 5 μl of inhibitor or control to the assay in 50% DMSO.
2. Add 35 μl of reaction mixture containing 5 μl of 10× reaction buffer, 5 μl of 25 mM ATP/10 μCi[^33P]ATP (Amersham) and 5 μl of 10× substrate.
3. Start the reaction by the addition of 10 μl of KDR (25 nM) in enzyme dilution buffer.
4. Mix and incubate at room temperature for 15 minutes.
5. Stop the reaction by the addition of 50 μl of stop solution.
6. Incubate at 4° C. for 15 minutes.
7. Transfer a 90 μl aliquot to filter plate.
8. Aspirate and wash 3 times with wash solution.
9. Add 30 μl of scintillation cocktail, seal plate and count in a Wallace Microbeta scintillation counter.

TIE-2 = TIE-2 (Homo sapiens, UniProt Q02763); assay: TIE-2 kinase flashplate assay (phosphorylation of poly(Glu, Tyr) with 33P-ATP); type: biochemical; conditions: read-out: Kinase-Inhibiting Activities IC50 TIE-2
Protocol: The TIE-2 tests can be carried out, for example, analogously to the methods indicated in WO 02/44156.
The assay determines the inhibiting activity of the substances to be tested in the phosphorylation of the substrate poly(Glu, Tyr) by Tie-2 kinase in the presence of radioactive ^33P-ATP. The phosphorylated substrate binds to the surface of a “flashplate” microtitre plate during the incubation time. After removal of the reaction mixture, the microtitre plate is washed a number of times and the radioactivity on its surface is subsequently measured. An inhibiting effect of the substances to be measured results in lower radioactivity compared with an undisturbed enzymatic reaction.

TIE-2, sequence (Q02763 23-1124, species assumed): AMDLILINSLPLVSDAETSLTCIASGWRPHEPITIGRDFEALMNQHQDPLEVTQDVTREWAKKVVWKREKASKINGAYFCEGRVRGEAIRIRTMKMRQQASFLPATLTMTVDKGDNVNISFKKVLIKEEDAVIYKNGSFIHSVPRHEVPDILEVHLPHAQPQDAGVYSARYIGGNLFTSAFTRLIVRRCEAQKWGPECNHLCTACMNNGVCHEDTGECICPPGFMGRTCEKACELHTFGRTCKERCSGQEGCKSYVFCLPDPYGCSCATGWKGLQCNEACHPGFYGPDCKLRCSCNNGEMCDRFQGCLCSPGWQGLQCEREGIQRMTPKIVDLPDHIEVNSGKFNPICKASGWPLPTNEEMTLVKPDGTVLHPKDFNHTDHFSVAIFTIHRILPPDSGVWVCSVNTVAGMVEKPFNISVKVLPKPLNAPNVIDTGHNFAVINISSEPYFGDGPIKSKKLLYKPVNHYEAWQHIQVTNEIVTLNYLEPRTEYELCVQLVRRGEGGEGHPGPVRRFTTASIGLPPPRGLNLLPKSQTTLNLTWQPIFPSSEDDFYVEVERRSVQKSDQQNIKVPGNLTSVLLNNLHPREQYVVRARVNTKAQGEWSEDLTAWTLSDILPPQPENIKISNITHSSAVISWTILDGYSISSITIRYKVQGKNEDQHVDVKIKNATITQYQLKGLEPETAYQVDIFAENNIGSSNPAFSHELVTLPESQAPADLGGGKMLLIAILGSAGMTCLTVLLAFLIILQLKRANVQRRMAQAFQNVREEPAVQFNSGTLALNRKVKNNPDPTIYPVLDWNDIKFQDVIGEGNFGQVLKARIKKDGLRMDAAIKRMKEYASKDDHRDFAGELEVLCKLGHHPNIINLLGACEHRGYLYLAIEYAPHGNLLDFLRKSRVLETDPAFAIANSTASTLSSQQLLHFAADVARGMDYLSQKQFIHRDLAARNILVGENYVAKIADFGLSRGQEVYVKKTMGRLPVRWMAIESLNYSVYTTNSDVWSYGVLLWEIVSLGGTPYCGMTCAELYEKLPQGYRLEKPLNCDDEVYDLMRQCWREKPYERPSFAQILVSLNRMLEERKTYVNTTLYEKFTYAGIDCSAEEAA
T1 sequence (P35968 786-1356 limits assumed): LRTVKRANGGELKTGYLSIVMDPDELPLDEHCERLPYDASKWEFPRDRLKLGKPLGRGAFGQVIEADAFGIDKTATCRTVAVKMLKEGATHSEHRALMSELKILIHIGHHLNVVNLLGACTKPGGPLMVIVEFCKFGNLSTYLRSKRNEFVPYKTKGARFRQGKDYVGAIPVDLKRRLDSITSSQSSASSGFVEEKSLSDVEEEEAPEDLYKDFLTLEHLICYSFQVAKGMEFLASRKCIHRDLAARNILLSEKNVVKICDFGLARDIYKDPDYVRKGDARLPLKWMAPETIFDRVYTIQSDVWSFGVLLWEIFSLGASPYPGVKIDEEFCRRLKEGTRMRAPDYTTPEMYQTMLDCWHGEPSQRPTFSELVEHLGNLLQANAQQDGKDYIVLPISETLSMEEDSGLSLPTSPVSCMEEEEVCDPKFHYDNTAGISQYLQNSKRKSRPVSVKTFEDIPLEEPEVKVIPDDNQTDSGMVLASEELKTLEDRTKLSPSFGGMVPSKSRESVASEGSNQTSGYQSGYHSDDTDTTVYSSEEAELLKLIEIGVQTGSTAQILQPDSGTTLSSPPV

| SMILES | IC50 (VEGFR (KDR)) | IC50 (TIE-2) |
| --- | --- | --- |
| CNC(=O)c1cc(Oc2ccc(NC(=O)Nc3cc(C(C)(C)C)nn3-c3ccc(F)cc3)cc2)ccn1 [Compound 1, 1-[4-(2-methylaminocarbonylpyridin-4-yloxy)phenyl]-3-[5-tert-butyl-2-(4-fluorophenyl)-2H-pyrazol-3-yl]urea] | 110 nM | 6.5 nM |
| CNC(=O)c1cc(Oc2ccc(NC(=O)Nc3cc(-c4ccco4)nn3-c3ccc(C)cc3)cc2)ccn1 [Compound 2, 1-[4-(2-methylaminocarbonylpyridin-4-yloxy)phenyl]-3-[5-(furan-2-yl)-2-(p-tolyl)-2H-pyrazol-3-yl]urea] | 33.5 nM | 4.3 nM |
| CNC(=O)c1cc(Oc2ccc(NC(=O)Nc3cc(-c4ccco4)nn3-c3ccc(F)cc3)cc2)ccn1 [Compound 3, 1-[4-(2-Methylaminocarbonylpyridin-4-yloxy)phenyl]-3-[5-(furan-2-yl)-2-(4-fluorophenyl)-2H-pyrazol-3-yl]urea] | 74.8 nM | 9.7 nM |
| CNC(=O)c1cc(Oc2ccc(NC(=O)Nc3cc(C(C)(C)C)nn3-c3ccc(C)cc3)cc2)ccn1 [Compound 8, 1-[4-(2-Methylaminocarbonylpyridin-4-yloxy)phenyl]-3-[5-tert-butyl-2-(p-tolyl)-2H-pyrazol-3-yl]urea] | 58 nM | 7.2 nM |
| CNC(=O)c1cc(Oc2ccc(NC(=O)Nc3cc(C(C)(C)C)nn3-c3cccc(C(F)(F)F)c3)cc2)ccn1 [Compound 11, 1-[4-(2-Methylaminocarbonylpyridin-4-yloxy)phenyl]-3-[5-tert-butyl-2-(3-trifluoromethylphenyl)-2H-pyrazol-3-yl]urea] | 134 nM | 3.2 nM |
